Measured values as given in patent US8278304B2, “Substituted 4-hydroxypyrimidine-5-carboxamides” (Merck Sharp & Dohme Corp., priority 2008, dated 2012).
Structures can show the parent of a compound that is named as a salt.

Target: T1, PHD2 (Homo sapiens, UniProt Q9GZT9)
T1 construct: FLAG-tagged full length PHD2 expressed in and purified from baculovirus-infected Sf9 cells; FLAG; made in house; host or cells: baculovirus-infected Sf9 cells
Experiment: PHD2 / HIF-1α peptide hydroxylation assay, time resolved fluorescence (VHL complex detection)
Type: biochemical
Conditions: FLAG-tagged full length PHD2; 0.2 μM 2-oxoglutarate, 0.5 μM HIF-1α peptide; read-out: PHD2 Activity (PHD2 binding activity expressed as IC50 (nM))
Procedure, shortened: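 Sf9-expressed FLAG-tagged full-length PHD2 (0.15 μg/ml) preincubated with compound 30 min at room temperature in Tris pH 7.4 buffer with 10 μM ferrous sulfate, 1 mM ascorbate and catalase. Reaction started with 0.2 μM 2-oxoglutarate and 0.5 μM biotinylated HIF-1α peptide (final); hydroxylation detected by time-resolved fluorescence via VHL complex binding.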

T1 sequence (Q9GZT9 whole entry): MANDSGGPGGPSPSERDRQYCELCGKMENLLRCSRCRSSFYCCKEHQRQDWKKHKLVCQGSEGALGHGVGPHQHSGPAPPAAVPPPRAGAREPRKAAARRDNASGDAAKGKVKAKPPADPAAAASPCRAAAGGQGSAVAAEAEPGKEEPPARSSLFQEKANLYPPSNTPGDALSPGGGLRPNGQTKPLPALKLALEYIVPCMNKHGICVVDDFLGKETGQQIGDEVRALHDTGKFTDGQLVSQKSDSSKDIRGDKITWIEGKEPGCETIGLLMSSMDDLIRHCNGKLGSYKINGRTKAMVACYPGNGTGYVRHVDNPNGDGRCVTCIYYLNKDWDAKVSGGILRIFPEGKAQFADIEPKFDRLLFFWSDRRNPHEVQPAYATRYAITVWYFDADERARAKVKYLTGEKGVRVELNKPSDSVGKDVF

IC50, ≤ 10 nM:
COc1ccc(C(NC(=O)c2cnc(-n3cccn3)nc2O)c2cnccn2)cc1 (stereo not shown) [Example 166, 4-hydroxy-N-[(4-methoxyphenyl)(pyrazin-2-yl)methyl]-2-(1H-pyrazol-1-yl)pyrimidine-5-carboxamide]
COc1ccc(C(NC(=O)c2cnc(-n3cccn3)nc2O)c2ccc(OC)nc2)cc1 (stereo not shown) [Example 167, 4-hydroxy-N-[(4-methoxyphenyl)(6-methoxypyridin-3-yl)methyl]-2-(1H-pyrazol-1-yl)pyrimidine-5-carboxamide trifluoroacetate (salt)]
COc1ccc(C(NC(=O)c2cnc(-n3cccn3)nc2O)c2ccc(SC)cc2)cc1 (stereo not shown) [Example 168, 4-hydroxy-N-{(4-methoxyphenyl)[4-(methylsulfanyl)phenyl]methyl}-2-(1H-pyrazol-1-yl)pyrimidine-5-carboxamide]
COc1ccc(C(NC(=O)c2cnc(-c3cccnn3)nc2O)c2ccc(Cl)nc2)cc1 (stereo not shown) [Example 169, N-[(6-chloropyridin-3-yl)(4-methoxyphenyl)methyl]-4-hydroxy-2-(pyridazin-3-yl)pyrimidin-5-carboxamide]
COc1ccc(C(NC(=O)c2cnc(-c3cccnn3)nc2O)c2ccc(OC)nc2)cc1 (stereo not shown) [Example 170, 4-hydroxy-N-[(4-methoxyphenyl)(6-methoxypyridin-3-yl)methyl]-2-(pyridazin-3-yl)pyrimidine-5-carboxamide]
COc1ccc(C(NC(=O)c2cnc(-c3cccnn3)nc2O)c2ccc3ccccc3n2)cc1 (stereo not shown) [Example 171, 4-hydroxy-N-[(4-methoxyphenyl)(quinolin-2-yl)methyl]-2-(pyridazin-3-yl)pyrimidine-5-carboxamide]
COc1ccc(C(NC(=O)c2cnc(-c3cccnn3)nc2O)c2ccc3cc(OC)ccc3n2)cc1 (stereo not shown) [Example 172, 4-hydroxy-N-[(4-methoxyphenyl)(6-methoxyquinolin-2-yl)methyl]-2-(pyridazin-3-yl)pyrimidine-5-carboxamide]
COc1ccc(C(NC(=O)c2cnc(-c3cccnn3)nc2O)c2nc3ccccc3s2)cc1 (stereo not shown) [Example 173, N-[1,3-benzothiazol-2-yl(4-methoxyphenyl)methyl]-4-hydroxy-2-(pyridazin-3-yl)pyrimidine-5-carboxamide]
COc1ccc(C(NC(=O)c2cnc(-c3cccnn3)nc2O)c2ccc(OC)cc2OC)c(OC)c1 [Example 174, N-[bis(2,4-dimethoxyphenyl)methyl]-4-hydroxy-2-(pyridazin-3-yl)pyrimidine-5-carboxamide]
COc1ccc(C(NC(=O)c2cnc(-c3cccnn3)nc2O)c2ccc(OC)cc2C)c(C)c1 [Example 175, N-[bis(4-methoxy-2-methylphenyl)methyl]-4-hydroxy-2-(pyridazin-3-yl)pyrimidine-5-carboxamide]
COc1ccc(C(NC(=O)c2cnc(-c3cccnn3)nc2O)c2ccc(F)cc2)c(OC)c1 (stereo not shown) [Example 176, N-[(2,4-dimethoxyphenyl)(4-fluorophenyl)methyl]-4-hydroxy-2-(pyridazin-3-yl)pyrimidine-5-carboxamide]
COc1ccc(C(NC(=O)c2cnc(-c3cccnn3)nc2O)c2ccc(F)cc2)c(OC)n1 (stereo not shown) [Example 177, N-[(2,6-dimethoxypyridin-3-yl)(4-fluorophenyl)methyl]-4-hydroxy-2-(pyridazin-3-yl)pyrimidine-5-carboxamide]
COc1ccc(C(NC(=O)c2cnc(-c3cccnn3)nc2O)c2ccc(SC)cc2)cc1 (stereo not shown) [Example 178, 4-hydroxy-N-{(4-methoxyphenyl)[4-(methylsulfanyl)phenyl]methyl}-2-(pyridazin-3-yl)pyrimidine-5-carboxamide]
